“And” between values parts separate entries of the source, which are not always exact repeats. Equal entries are not always repeated. Where two headings read alike, the source gives them in different places.
Columns and labels:
Experiment in all cases: SelectScreen kinase assay
CDK4/cyclin D1 = CDK4/cyclin D1 (Homo sapiens, UniProt P11802); details: for Inhibition at 1 µM (%): CDK4/cyclin D1, Adapta, ATP 10
Description: (§1) Selectivity profiling assays were performed by the Invitrogen SelectScreen™ Services. […] The concentration of ATP was selected to be equal to the KM, unless indicated otherwise.

EPHB1 = EPHB1 (Homo sapiens, UniProt P54762)
Description: as §1

PAK3 = PAK3 (Homo sapiens, UniProt O75914)
Description: as §1

CDK8/cyclin C = CDK8/cyclin C (Homo sapiens, UniProt P49336); details: read-out: Inhibition at 1 µM (%)
Description: as §1

STK38L (NDR2) = STK38L (NDR2) (Homo sapiens, UniProt Q9Y2H1); details: for Inhibition at 1 µM (%): LanthaScreen Binding
Description: as §1

MAPK9 (JNK2) = MAPK9 (JNK2) (Homo sapiens, UniProt P45984)
Description: as §1

RPS6KB1 (p70S6K) = RPS6KB1 (p70S6K) (Homo sapiens, UniProt P23443)
Description: as §1

JAK3 = target: T1, JAK3 (Homo sapiens, UniProt P52333)
T1 sequence (P52333 1-1124): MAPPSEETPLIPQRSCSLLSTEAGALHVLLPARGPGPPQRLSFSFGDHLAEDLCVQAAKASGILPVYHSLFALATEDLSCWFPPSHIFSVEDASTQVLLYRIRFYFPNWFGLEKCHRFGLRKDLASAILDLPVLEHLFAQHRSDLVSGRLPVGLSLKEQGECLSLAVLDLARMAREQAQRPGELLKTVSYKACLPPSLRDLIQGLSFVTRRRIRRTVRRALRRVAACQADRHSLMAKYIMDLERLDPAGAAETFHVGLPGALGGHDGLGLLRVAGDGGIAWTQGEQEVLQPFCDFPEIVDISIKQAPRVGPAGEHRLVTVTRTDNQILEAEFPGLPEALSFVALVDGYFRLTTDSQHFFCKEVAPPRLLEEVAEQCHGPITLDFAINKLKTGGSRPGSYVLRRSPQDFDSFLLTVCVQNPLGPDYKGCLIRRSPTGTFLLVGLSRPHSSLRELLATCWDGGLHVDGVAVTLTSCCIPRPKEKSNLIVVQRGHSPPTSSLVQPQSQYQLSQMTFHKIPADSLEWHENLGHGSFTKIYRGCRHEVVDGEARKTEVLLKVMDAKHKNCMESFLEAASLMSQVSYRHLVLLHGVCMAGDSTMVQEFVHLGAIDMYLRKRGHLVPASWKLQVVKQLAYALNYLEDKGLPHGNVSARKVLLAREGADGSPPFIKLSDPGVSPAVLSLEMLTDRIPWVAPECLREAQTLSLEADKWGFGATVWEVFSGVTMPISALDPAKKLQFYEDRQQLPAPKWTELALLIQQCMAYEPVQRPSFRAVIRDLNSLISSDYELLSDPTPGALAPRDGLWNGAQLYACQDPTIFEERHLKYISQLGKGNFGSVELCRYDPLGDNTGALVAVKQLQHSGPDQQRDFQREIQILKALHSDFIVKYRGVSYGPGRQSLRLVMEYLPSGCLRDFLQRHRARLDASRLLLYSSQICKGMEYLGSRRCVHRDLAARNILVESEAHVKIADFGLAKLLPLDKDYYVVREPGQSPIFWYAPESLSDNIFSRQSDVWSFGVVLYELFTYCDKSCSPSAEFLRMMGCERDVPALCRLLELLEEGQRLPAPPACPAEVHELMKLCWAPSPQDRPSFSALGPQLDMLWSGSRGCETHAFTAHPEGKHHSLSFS
Description: as §1

MAP3K9 (MLK1) = MAP3K9 (MLK1) (Homo sapiens, UniProt P80192)
Description: as §1

EPHA7 = EPHA7 (Homo sapiens, UniProt Q15375); details: 1 h, 1 μM WEL028, 1 h preincubation
Description: as §1

HIPK2 = HIPK2 (Homo sapiens, UniProt Q9H2X6); details: for Inhibition at 1 µM (%): HIPK2, ZLYTE, ATP Km app
Description: as §1

CDK11/cyclin C = CDK11/cyclin C (Homo sapiens, UniProt Q9BWU1); details: for Inhibition at 1 µM (%): CDK11/cyclin C, LanthaScreen Binding
Description: as §1

DNA-PK = DNA-PK (Homo sapiens, UniProt P78527)
Description: as §1

WNK3 = WNK3 (Homo sapiens, UniProt Q9BYP7)
Description: as §1

IRAK4 = IRAK4 (Homo sapiens, UniProt Q9NWZ3)
Description: as §1

CSF1R (FMS) = CSF1R (FMS) (Homo sapiens, UniProt P07333)
Description: as §1

[1] = 1 h, 1 μM WEL028, 1 h preincubation

Sequence of WNK3 (Q9BYP7 whole entry): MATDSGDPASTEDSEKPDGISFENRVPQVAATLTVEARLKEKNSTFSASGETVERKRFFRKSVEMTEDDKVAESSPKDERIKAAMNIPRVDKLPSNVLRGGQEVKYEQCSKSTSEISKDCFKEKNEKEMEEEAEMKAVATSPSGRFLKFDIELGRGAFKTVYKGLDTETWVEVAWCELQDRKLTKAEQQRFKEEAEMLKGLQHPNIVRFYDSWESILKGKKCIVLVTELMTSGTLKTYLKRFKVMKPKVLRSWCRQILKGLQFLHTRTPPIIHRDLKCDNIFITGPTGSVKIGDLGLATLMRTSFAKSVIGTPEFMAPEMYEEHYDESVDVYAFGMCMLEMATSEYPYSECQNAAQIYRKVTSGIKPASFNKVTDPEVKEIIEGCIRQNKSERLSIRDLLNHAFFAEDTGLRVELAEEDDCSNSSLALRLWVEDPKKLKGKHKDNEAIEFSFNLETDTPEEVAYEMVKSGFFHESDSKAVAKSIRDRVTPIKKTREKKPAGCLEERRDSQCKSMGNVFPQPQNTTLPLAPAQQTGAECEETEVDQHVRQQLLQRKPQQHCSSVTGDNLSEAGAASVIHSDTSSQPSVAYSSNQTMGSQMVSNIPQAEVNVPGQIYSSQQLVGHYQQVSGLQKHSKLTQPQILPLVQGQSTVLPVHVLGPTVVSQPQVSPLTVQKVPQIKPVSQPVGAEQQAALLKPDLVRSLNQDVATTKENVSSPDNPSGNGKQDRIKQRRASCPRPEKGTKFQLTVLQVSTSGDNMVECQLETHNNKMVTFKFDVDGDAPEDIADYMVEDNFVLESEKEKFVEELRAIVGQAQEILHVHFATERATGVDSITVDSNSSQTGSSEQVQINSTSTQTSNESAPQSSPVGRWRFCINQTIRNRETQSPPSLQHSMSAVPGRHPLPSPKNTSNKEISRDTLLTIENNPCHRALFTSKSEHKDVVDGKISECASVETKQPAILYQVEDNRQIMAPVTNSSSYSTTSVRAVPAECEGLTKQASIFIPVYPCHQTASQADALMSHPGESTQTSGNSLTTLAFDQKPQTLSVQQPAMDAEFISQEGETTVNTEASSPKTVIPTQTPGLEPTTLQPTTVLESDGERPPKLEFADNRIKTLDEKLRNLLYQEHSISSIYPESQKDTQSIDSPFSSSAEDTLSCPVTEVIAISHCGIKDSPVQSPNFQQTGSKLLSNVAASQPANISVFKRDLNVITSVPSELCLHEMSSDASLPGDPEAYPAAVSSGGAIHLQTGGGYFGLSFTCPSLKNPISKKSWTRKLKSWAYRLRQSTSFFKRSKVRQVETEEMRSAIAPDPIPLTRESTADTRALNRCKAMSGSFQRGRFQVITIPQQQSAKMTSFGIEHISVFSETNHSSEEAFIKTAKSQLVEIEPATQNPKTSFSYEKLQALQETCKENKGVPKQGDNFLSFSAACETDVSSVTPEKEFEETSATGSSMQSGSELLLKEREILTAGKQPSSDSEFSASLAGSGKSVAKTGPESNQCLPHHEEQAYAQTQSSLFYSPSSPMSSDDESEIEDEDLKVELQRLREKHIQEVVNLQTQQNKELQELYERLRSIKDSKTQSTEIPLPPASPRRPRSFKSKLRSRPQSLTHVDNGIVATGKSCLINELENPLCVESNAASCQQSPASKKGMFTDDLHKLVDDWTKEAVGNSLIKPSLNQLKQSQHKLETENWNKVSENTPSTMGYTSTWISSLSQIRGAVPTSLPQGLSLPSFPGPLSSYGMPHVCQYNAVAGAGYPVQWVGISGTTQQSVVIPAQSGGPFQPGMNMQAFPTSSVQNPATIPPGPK
Sequence of CDK4/cyclin D1 (P11802 whole entry): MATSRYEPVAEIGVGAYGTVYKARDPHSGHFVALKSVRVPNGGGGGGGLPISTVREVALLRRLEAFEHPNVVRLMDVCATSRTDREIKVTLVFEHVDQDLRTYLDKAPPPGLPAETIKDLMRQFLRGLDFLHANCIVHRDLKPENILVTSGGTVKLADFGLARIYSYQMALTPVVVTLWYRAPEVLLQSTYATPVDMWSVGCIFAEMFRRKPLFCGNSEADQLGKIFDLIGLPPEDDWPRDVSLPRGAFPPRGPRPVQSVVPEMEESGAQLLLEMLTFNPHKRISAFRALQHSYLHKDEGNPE
Sequence of CDK4/cyclin D1 (P24385 whole entry partner): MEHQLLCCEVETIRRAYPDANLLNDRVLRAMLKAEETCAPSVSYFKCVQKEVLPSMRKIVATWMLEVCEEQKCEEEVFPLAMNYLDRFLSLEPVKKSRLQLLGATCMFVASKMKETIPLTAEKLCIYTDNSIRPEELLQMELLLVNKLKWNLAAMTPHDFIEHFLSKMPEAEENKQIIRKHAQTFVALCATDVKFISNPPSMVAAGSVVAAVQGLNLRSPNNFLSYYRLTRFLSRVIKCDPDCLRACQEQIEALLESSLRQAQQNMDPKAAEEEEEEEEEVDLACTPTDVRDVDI
Sequence of IRAK4 (Q9NWZ3 whole entry): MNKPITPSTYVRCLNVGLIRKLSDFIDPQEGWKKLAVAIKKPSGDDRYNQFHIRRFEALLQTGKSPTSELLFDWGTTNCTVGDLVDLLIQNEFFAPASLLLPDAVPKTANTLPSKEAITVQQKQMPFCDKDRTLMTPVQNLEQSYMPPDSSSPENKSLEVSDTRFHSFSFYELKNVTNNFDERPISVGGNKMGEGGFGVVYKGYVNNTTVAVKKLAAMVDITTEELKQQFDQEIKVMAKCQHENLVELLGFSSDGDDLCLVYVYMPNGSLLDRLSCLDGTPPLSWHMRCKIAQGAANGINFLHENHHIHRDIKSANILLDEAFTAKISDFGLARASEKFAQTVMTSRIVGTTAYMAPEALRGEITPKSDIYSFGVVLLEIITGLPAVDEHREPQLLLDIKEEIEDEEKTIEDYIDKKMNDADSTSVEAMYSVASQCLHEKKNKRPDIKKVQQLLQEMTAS
Sequence of PAK3 (O75914 whole entry): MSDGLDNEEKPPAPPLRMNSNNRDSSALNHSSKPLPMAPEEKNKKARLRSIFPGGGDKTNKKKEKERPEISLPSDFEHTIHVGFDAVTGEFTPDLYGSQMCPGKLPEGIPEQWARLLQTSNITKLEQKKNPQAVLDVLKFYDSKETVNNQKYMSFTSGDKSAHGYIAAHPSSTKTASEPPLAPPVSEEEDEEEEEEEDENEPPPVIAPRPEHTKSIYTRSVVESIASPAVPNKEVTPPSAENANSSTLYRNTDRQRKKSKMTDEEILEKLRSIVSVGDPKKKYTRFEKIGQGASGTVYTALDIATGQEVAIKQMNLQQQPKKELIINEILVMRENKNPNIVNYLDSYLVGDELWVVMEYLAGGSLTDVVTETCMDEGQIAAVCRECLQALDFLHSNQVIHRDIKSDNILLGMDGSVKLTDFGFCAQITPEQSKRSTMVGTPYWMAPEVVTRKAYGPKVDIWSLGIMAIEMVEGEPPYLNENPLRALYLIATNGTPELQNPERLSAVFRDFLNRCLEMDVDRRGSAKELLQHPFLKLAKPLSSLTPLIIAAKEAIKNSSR
Sequence of CSF1R (FMS) (P07333 20-972): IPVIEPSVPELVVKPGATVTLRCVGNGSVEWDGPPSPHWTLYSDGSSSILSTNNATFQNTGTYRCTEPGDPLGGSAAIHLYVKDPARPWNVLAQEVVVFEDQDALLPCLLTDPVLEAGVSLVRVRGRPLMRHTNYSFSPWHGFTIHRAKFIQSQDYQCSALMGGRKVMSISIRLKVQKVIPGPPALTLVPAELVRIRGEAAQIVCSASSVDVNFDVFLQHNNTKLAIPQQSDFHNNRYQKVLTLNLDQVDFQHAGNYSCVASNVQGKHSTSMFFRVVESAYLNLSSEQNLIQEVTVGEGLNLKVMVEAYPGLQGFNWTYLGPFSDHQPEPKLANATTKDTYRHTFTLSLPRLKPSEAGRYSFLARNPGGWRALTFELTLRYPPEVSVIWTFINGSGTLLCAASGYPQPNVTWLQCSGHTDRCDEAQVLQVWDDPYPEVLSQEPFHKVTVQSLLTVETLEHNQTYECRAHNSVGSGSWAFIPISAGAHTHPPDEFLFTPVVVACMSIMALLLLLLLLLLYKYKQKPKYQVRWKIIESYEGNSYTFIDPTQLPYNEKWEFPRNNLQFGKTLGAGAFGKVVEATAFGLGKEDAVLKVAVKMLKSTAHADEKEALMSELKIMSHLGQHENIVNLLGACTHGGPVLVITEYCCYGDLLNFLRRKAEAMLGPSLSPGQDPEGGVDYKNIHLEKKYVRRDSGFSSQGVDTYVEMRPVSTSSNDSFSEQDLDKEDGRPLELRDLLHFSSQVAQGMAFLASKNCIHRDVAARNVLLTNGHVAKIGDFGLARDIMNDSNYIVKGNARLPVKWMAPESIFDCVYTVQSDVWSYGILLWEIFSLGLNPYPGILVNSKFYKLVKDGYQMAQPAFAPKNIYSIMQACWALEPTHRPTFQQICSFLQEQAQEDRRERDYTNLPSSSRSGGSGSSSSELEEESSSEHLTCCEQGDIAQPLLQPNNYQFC
Sequence of STK38L (NDR2) (Q9Y2H1 whole entry): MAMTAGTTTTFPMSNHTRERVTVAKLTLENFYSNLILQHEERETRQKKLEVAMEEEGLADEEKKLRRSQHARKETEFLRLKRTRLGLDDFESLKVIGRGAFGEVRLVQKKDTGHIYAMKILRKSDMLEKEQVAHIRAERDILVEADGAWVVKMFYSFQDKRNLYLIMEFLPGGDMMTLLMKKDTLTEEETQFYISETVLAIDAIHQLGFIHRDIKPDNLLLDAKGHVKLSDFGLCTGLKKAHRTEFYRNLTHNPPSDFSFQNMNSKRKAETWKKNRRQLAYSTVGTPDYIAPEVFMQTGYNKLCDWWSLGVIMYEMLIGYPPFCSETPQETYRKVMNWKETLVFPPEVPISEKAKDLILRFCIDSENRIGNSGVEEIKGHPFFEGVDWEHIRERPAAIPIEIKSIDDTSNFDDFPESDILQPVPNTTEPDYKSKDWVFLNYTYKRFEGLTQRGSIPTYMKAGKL

SMILES: C#CCOc1ccc(Nc2ncc(Cl)c(Nc3ccccc3NC(=O)C=C)n2)c(OC)c1 [Compound 6]
- inhibition at 1 µM (CDK4/cyclin D1; [1]): -10%
- Inhibition at 1 µM (%) (CDK4/cyclin D1): -14%
- Inhibition at 1 µM (%) (CDK4/cyclin D1; listed as WEL028, 1 µM): -6%
- inhibition at 1 µM (EPHB1; [1]): 0%
- Inhibition at 1 µM (%) (EPHB1; EPHB1, 1 µM, ZLYTE, ATP Km app, listed as WEL028, 1 µM): -1% and 1%
- inhibition at 1 µM (PAK3; [1]): 7%
- Inhibition at 1 µM (%) (PAK3; PAK3, 1 µM, ZLYTE, ATP Km app, listed as WEL028, 1 µM): 6%
- inhibition at 1 µM (PAK3; read-out: Inhibition at 1 µM (%), PAK3, 1 µM, ZLYTE, ATP Km app): 7%
- inhibition at 1 µM (CDK8/cyclin C): 0%
- Inhibition at 1 µM (%) (STK38L (NDR2)): 2%
- Inhibition at 1 µM (%) (STK38L (NDR2); listed as WEL028, 1 µM): 7%
- inhibition at 1 µM (STK38L (NDR2); [1]): 5%
- Inhibition (%) (MAPK9 (JNK2); 1 μM WEL028, 1 h preincubation): 2%
- Inhibition at 1 µM (%) (MAPK9 (JNK2); MAPK9 (JNK2), 1 µM, ZLYTE, ATP 100, listed as WEL028, 1 µM): -1% and 5%
- Inhibition at 1 µM (%) (RPS6KB1 (p70S6K); 1 µM, ZLYTE, ATP Km app): 15%
- inhibition at 1 µM (RPS6KB1 (p70S6K); [1]): 4%
- inhibition at 1 µM (JAK3; [1]): 14%
- Inhibition at 1 µM (%) (JAK3; JAK3, 1 µM, ZLYTE, ATP Km app, listed as WEL028, 1 µM): 10%
- inhibition at 1 µM (JAK3; read-out: Inhibition at 1 µM (%), JAK3, 1 µM, ZLYTE, ATP Km app): 18%
- inhibition at 1 µM (MAP3K9 (MLK1); [1]): -11%
- Inhibition at 1 µM (%) (MAP3K9 (MLK1); MAP3K9 (MLK1), 1 µM, ZLYTE, ATP Km app): -21%
- inhibition at 1 µM (EPHA7): 4%
- inhibition at 1 µM (HIPK2; [1]): 1%
- Inhibition at 1 µM (%) (HIPK2): 2%
- Inhibition at 1 µM (%) (HIPK2; listed as WEL028, 1 µM): 0%
- Inhibition (%) (CDK11/cyclin C; 1 μM WEL028, 1 h preincubation): 5%
- Inhibition at 1 µM (%) (CDK11/cyclin C): 2%
- Inhibition at 1 µM (%) (CDK11/cyclin C; listed as WEL028, 1 µM): 7%
- inhibition at 1 µM (DNA-PK; [1]): 6%
- Inhibition at 1 µM (%) (DNA-PK; DNA-PK, 1 µM, ZLYTE, ATP Km app, listed as WEL028, 1 µM): 8%
- inhibition at 1 µM (DNA-PK; read-out: Inhibition at 1 µM (%), DNA-PK, 1 µM, ZLYTE, ATP Km app): 4%
- Inhibition at 1 µM (%) (WNK3; 1 µM, LanthaScreen Binding, listed as WEL028, 1 µM): 5% and 1%
- inhibition at 1 µM (WNK3; [1]): 3%
- Inhibition (%) (IRAK4; 1 μM WEL028, 1 h preincubation): 0%
- Inhibition at 1 µM (%) (IRAK4; IRAK4, 1 µM, ZLYTE, ATP Km app, listed as WEL028, 1 µM): -3% and 3%
- inhibition at 1 µM (CSF1R (FMS); [1]): 11%
- Inhibition at 1 µM (%) (CSF1R (FMS); CSF1R (FMS), 1 µM, ZLYTE, ATP Km app, listed as WEL028, 1 µM): 8%
- inhibition at 1 µM (CSF1R (FMS); read-out: Inhibition at 1 µM (%), CSF1R (FMS), 1 µM, ZLYTE, ATP Km app): 13%
